In patent US11739098B2 (BRISTOL-MYERS SQUIBB COMPANY, priority 2017, dated 2023):

Columns and labels:
Format in all cases: cell-based
human TLR9 = target: T1, human TLR9 (Homo sapiens, UniProt Q9NR96); test: TLR9 inhibition reporter assay (HEK-Blue cells, SEAP reporter, ODN2006 stimulation); conditions: HEK-Blue cells overexpressing human TLR9, SEAP reporter, ODN2006 5 nM
T1 construct: host or cells: HEK-Blue cells (HEK293-derived reporter line)
T1 sequence (Q9NR96 26-1032): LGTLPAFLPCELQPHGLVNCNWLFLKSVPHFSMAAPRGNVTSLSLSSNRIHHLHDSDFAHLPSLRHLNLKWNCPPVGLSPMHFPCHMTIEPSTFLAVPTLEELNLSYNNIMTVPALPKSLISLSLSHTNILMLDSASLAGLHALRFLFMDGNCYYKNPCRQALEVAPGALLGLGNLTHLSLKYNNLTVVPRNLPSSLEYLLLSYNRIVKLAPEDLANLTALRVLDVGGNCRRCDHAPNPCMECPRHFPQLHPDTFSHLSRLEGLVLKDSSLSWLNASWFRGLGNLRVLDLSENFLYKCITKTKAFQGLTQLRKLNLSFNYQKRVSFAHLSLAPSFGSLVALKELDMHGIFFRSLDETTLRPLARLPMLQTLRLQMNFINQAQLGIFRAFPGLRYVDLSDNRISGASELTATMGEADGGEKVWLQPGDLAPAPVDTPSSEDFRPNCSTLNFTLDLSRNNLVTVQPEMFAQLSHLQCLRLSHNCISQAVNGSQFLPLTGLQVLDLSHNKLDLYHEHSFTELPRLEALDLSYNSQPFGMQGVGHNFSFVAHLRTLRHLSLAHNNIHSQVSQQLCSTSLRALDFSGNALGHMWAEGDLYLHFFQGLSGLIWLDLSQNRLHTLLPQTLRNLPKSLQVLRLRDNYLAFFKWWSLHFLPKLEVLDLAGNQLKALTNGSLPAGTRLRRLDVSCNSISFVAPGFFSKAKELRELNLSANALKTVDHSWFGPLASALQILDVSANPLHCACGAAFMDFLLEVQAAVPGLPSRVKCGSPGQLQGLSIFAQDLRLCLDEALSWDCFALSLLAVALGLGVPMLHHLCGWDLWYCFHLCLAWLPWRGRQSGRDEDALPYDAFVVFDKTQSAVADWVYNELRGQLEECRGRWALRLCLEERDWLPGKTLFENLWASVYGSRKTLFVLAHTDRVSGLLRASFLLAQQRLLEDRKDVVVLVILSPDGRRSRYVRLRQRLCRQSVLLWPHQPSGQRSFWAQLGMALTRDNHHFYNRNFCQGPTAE
Method in brief: (§1)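 Read-out is SEAP activity in HEK-Blue detection medium after 22 h at 37 °C, converted to percent inhibition against agonist-plus-DMSO and reference-inhibitor controls. Cells saw compound (0.05 nM–50 μM, 30 min, room temperature) before gardiquimod 7.5 μM, R848 15.9 μM or ODN2006 5 nM for TLR7, TLR8 and TLR9, respectively.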

human TLR8 = target: T2, human TLR8 (Homo sapiens, UniProt Q9NR97); test: TLR8 inhibition reporter assay (HEK-Blue cells, SEAP reporter, R848 stimulation); conditions: HEK-Blue cells overexpressing human TLR8, SEAP reporter, R848 15.9 μM
T2 construct: host or cells: HEK-Blue cells (HEK293-derived reporter line)
T2 sequence (Q9NR97 27-1041): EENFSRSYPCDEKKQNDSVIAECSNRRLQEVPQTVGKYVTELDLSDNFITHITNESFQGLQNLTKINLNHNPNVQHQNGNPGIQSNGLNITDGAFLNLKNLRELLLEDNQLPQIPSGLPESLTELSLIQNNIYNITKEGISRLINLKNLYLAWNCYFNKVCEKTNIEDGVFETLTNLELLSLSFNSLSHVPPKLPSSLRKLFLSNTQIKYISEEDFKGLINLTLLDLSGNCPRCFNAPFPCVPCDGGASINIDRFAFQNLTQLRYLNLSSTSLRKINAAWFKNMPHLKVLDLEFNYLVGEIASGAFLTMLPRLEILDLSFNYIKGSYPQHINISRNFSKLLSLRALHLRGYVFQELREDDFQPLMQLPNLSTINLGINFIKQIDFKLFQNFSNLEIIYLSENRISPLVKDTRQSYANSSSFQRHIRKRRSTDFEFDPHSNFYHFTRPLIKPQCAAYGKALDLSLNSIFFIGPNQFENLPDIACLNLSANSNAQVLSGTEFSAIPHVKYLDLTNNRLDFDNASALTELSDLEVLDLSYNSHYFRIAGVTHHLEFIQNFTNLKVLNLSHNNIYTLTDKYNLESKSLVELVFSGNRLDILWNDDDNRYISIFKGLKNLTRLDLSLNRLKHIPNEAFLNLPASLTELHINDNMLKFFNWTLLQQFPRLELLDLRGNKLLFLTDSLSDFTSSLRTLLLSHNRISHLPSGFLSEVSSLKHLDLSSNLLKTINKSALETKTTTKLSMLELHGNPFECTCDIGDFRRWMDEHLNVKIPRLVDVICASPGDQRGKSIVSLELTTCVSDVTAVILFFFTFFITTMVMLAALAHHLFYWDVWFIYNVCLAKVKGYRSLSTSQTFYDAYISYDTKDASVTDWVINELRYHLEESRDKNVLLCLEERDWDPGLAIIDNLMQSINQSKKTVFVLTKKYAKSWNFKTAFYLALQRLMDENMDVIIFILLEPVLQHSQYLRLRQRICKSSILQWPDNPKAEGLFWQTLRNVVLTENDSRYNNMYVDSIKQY
Method in brief: as §1

human TLR7 = target: T3, human TLR7 (Homo sapiens, UniProt Q9NYK1); test: TLR7 inhibition reporter assay (HEK-Blue cells, SEAP reporter, gardiquimod stimulation); conditions: HEK-Blue cells overexpressing human TLR7, SEAP reporter, gardiquimod 7.5 μM
T3 construct: host or cells: HEK-Blue cells (HEK293-derived reporter line)
T3 sequence (Q9NYK1 27-1049): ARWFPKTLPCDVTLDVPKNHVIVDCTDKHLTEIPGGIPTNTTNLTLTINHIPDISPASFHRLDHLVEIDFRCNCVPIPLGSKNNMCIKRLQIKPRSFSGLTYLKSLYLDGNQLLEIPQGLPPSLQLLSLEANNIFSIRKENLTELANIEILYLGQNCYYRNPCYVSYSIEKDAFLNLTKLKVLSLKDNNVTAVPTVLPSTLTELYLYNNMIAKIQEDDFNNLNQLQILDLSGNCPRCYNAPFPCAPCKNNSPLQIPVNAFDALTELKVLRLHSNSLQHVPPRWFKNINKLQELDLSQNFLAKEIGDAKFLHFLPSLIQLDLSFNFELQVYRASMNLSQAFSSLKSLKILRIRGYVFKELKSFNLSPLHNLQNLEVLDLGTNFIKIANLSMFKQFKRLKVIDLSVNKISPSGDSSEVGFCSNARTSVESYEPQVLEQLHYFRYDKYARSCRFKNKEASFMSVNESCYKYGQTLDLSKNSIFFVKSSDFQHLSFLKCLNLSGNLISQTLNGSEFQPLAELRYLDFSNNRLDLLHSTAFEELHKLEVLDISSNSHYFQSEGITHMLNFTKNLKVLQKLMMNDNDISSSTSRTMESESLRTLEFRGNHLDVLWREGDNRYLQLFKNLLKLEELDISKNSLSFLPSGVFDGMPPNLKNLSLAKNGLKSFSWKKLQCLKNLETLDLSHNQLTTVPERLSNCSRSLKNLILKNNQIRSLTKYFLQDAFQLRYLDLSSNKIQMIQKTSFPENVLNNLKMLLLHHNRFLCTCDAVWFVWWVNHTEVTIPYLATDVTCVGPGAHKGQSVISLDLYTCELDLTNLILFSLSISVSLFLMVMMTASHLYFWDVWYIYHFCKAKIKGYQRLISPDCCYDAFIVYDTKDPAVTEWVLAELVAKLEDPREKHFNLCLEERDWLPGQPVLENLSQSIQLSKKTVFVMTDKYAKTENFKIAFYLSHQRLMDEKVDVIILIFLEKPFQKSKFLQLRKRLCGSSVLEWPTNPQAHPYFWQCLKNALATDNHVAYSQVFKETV
Method in brief: as §1

SMILES	IC50 (human TLR9) [nM]	IC50 (human TLR8) [nM]	IC50 (human TLR7) [nM]
Cc1cc(-c2[nH]c3ccc(C4CCN(C5COC5)CC4)cc3c2C(C)C)cc2ncnn12 [Example 727, 7-(3-isopropyl-5-(1-(oxetan-3-yl)piperidin-4-yl)-1H-indol-2-yl)-5-methyl-[1,2,4]triazolo[1,5-a]pyridine]	1000 to 50000	< 100	< 100
Cc1cc(-c2[nH]c3ccc(C4CCN(CC(C)(C)O)CC4)cc3c2C(C)C)cc2nccn12 [Example 757, 1-(4-(3-isopropyl-2-(5-methylimidazo[1,2-a]pyridin-7-yl)-1H-indol-5-yl)piperidin-1-yl)-2-methylpropan-2-ol]	100 to 1000	100 to 1000	1000 to 50000
Cc1cn2cc(-c3[nH]c4ccc(C5CCN(Cc6c[nH]c(C)n6)CC5)cc4c3C(C)C)ccc2n1 [Example 937, 6-(3-isopropyl-5-(1-((2-methyl-1H-imidazol-4-yl)methyl)piperidin-4-yl)-1H-indol-2-yl)-2-methylimidazo[1,2-a]pyridine]	< 100	100 to 1000	< 100
CC(C)c1c(-c2ccc3cnnn3c2)[nH]c2ccc(C3CCN(Cc4ncn(C)n4)CC3)cc12 [Example 879, 6-(3-isopropyl-5-(1-((1-methyl-1H-1,2,4-triazol-3-yl)methyl)piperidin-4-yl)-1H-indol-2-yl)-[1,2,3]triazolo[1,5-a]pyridine]	1000 to 50000	100 to 1000	100 to 1000
CC(C)c1c(-c2ccnc3[nH]ncc23)[nH]c2ccc(C3CCN(C(=O)CN4CCCN(C)CC4)CC3)cc12 [Example 577, 1-(4-(3-isopropyl-2-(1H-pyrazolo[3,4-b]pyridin-4-yl)-1H-indol-5-yl)piperidin-1-yl)-2-(4-methyl-1,4-diazepan-1-yl)ethan-1-one]	100 to 1000	< 100	< 100
CCc1c(C)c(-c2[nH]c3ccc(C4CCN(CC(=O)NC)CC4)cc3c2C(C)C)cn2ccnc12 [Example 418, 2-(4-(2-(8-ethyl-7-methylimidazo[1,2-a]pyridin-6-yl)-3-isopropyl-1H-indol-5-yl)piperidin-1-yl)-N-methylacetamide]	1000 to 50000	100 to 1000	< 100
Cc1ccc(-c2[nH]c3ccc(C4CCN(C(=O)C[C@H](C)O)CC4)cc3c2C(C)C)c2ncnn12 [Example 599, (S)-3-hydroxy-1-(4-(3-isopropyl-2-(5-methyl-[1,2,4]triazolo[1,5-a]pyridin-8-yl)-1H-indol-5-yl)piperidin-1-yl)butan-1-one]	1000 to 50000	100 to 1000	100 to 1000
Cc1cc(-c2[nH]c3ccc(C4CCN(CC#N)CC4)cc3c2C(C)C)cn2ccnc12 [Example 951, 2-(4-(3-isopropyl-2-(8-methylimidazo[1,2-a]pyridin-6-yl)-1H-indol-5-yl)piperidin-1-yl)acetonitrile]	100 to 1000	< 100	< 100

Second part, the molecule after the results:

IC50 (human TLR9) [nM]	IC50 (human TLR8) [nM]	IC50 (human TLR7) [nM]	SMILES
100 to 1000	< 100	< 100	CCc1c(-c2c(C)cnc3[nH]ccc23)[nH]c2ccc(C3CCNCC3)cc12 [Example 246, 4-(3-ethyl-5-(piperidin-4-yl)-1H-indol-2-yl)-5-methyl-1H-pyrrolo[2,3-b]pyridine]
1000 to 50000	< 100	< 100	CC(C)c1c(-c2cnc3[nH]ncc3c2)[nH]c2ccc(C3CCN(C(=O)CN(C)C)CC3)cc12 [Example 562, 2-(dimethylamino)-1-(4-(3-isopropyl-2-(1H-pyrazolo[3,4-b]pyridin-5-yl)-1H-indol-5-yl)piperidin-1-yl)ethan-1-one]
1000 to 50000	< 100	< 100	Cc1nc2c(-c3[nH]c4ccc(C5CCNCC5)cc4c3C(C)C)cccn2n1 [Example 153, 8-(3-isopropyl-5-(piperidin-4-yl)-1H-indol-2-yl)-2-methyl-[1,2,4]triazolo[1,5-a]pyridine]
1000 to 50000	< 100	< 100	Cc1cc2cc(-c3[nH]c4ccc(C5CCNCC5)cc4c3C(C)C)cc(C)n2n1 [Example 142, 5-(3-isopropyl-5-(piperidin-4-yl)-1H-indol-2-yl)-2,7-dimethylpyrazolo[1,5-a]pyridine]
1000 to 50000	1000 to 50000	1000 to 50000	CCc1c(-c2cccc3[nH]ncc23)[nH]c2ccc(C3CCNCC3)cc12 [Example 182, 4-(3-ethyl-5-(piperidin-4-yl)-1H-indol-2-yl)-1H-indazole]
100 to 1000	100 to 1000	< 100	Cc1cn2cc(-c3[nH]c4ccc(C5CCNCC5)cc4c3C(C)C)ccc2n1 [Example 115, 6-(3-isopropyl-5-(piperidin-4-yl)-1H-indol-2-yl)-2-methylimidazo[1,2-a]pyridine]
100 to 1000	< 100	< 100	CC(C)c1c(-c2cnc3c(cnn3C)c2)[nH]c2ccc(C3CCNCC3)cc12 [Example 96, 5-(3-isopropyl-5-(piperidin-4-yl)-1H-indol-2-yl)-1-methyl-1H-pyrazolo[3,4-b]pyridine]
